# In patent US11149024B2, “Synthesis of Mcl-1 inhibitor” (ASTRAZENECA AB, priority 2017, dated 2021):
# What was measured:
# Format in all cases: cell-based
# [1] = test system: NCI-H23 (non-small cell lung cancer) cells; assay: Caspase Activity assay (Caspase-Glo 3/7), NCI-H23; details: Homo sapiens, 6 h treatment, induction of apoptosis
# Description: (§1) Caspase Activity assay: This is a cell assay to measure the induction of apoptosis in MOLP-8 (multiple myeloma), KMS-12-BM (multiple myeloma), MV4; 11 (acute myeloid leukemia), and NCI-H23 (non-small cell lung cancer) cells after 6 h treatment with Mcl-1 inhibitors. On the first day, 3000 (MOLP-8, KMS-12-BM, MV4; 11) or 1250 (NCI-H23) cells/well were seeded with 50 μL of growth media (IMDM+10% FBS+2 mM L-Glu for MV4; 11 and RPMI-1640+10% FBS+2 mM L-Glu for all others) in 384-well white microplates, and incubated overnight (37° C., 5% C02, 80% RH). On the second day, the cells were treated with Compound I using an ECHO acoustic liquid handler (10 point half-log serial dilution, 31.5 μM top concentration, 0.3% final DMSO concentration). After 6 h incubation (37° C., 5% C02, 80% RH), 25 μL of Caspase-Glo 3/7 reagent (Promega) was added into each well, and plates were incubated at room temperature for 30 min protected from light. Luminescence was recorded using an Infinite M200 microplate reader (Tecan) with a 100 ms integration time.
# [2] = test system: MOLP-8 (multiple myeloma) cells; assay: Caspase Activity assay (Caspase-Glo 3/7), MOLP-8; details: Homo sapiens; MOLP-8 cells, 6 h treatment, induction of apoptosis
# Description: as §1
# [3] = test system: KMS-12-BM (multiple myeloma) cells; assay: Caspase Activity assay (Caspase-Glo 3/7), KMS-12-BM; details: Homo sapiens; KMS-12-BM cells, 6 h treatment, induction of apoptosis
# Description: as §1
# [4] = test system: MV4; 11 (acute myeloid leukemia) cells; assay: Caspase Activity assay (Caspase-Glo 3/7), MV4; 11; details: Homo sapiens, 11 cells, 6 h treatment, induction of apoptosis
# Description: as §1
smiles,measurement,setting,value
"Cc1c2c(nn1C)CSCc1cc(n(C)n1)CSc1cc(c3ccccc3c1)OCCCc1c(C(=O)O)n(C)c3c-2c(Cl)ccc13 (atropisomer, axis not shown; (Ra)) [Compound I, (Ra)-(+)-17-chloro-5,13,14,22-tetramethyl-28-oxa-2,9-dithia-5,6,12,13,22-pentaazaheptacyclo[27.7.1.1^4,7.0^11,15.0^16,21.0^20,24.0^30,35]octatriaconta-1(37),4(38),6,11,14,16,18,20,23,29,31,33,35-tridecaene-23-carboxylic acid]",EC50,[1],0.193 µM
same,EC50,[2],0.03 µM
same,EC50,[3],0.043 µM
same,EC50,[4],0.02 µM
